We go through 15 compounds from US10689377B2 (Mirati Therapeutics, Inc., priority 2017, dated 2020).

The nature of data set [1]: In vitro stability in human whole blood. In kind it is in vitro ADME. As to conditions: male, whole blood diluted to 50% with PBS, 37° C. The text has this:
Materials: The following reagents were used as received: acetonitrile (HPLC grade, Burdick & Jackson, Madison, Wis.), phosphate buffered saline (PBS), pH 7.4 (Sigma-Aldrich, Co., St. Louis, Mo.), water (HPLC grade, JT Baker, Phillipsburg, N.J.), DMSO (EM Science, Merck KGaA, Darmstadt, Germany) and isopropanol (IPA, reagent grade, EMD Chemicals, Gibbstown, N.J.). Propantheline and esmolol (Sigma-Aldrich) were used as the positive control compounds in the assay. Diazepam (Sigma-Aldrich) was used as an internal standard for quantitation. Human whole blood was obtained from BioIVT (Westbury, N.Y.) […]. All other reagents and solvents were of the highest analytical grade supplied by Sigma (St. Louis, Mo.) and were used as received.
Blood Incubations: The in vitro stability of representative KRas G12C inhibitor compounds of the present invention in the presence whole blood was conducted in the following manner. Esmolol or propantheline, which are known to undergo ester hydrolysis by esterases in blood and plasma, were used as the positive controls in the assays. A 10 mM stock solution of propantheline, esmolol, or a compound of the present invention in DMSO was diluted to 500 μM with DMSO. Aliquots of whole blood (600 μL), in triplicate, were placed in the appropriate wells of a polypropylene 96-deep well plate (Axygen Scientific, Union City, Calif.). The blood was diluted to 50% using PBS, pH 7.4 (600 μL). The diluted blood was pre-incubated for 15 minutes at 37° C. Each well was dosed with 12 μL of the 500 μM DMSO stock simultaneously for a final test concentration of 5 μM. The plates were mixed at 600 rpm for 10 seconds on a plate shaker (IKA MTS 2/4 Digital Microtiter Shaker, VWR). Aliquots of 100 μL from each well of whole blood were transferred to three separate 96-deep well plates labeled 0, 60, or 240 minutes. At the end of each designated time point, the red blood cells were lysed with 100 μL of water, mixed at 600 rpm for one minute, and stopped with 800 μL of acetonitrile containing IS (0.625 μM diazepam). The plates were mixed on the plate shaker at 600 rpm for one minute and spun in a centrifuge at 2095×g for 7 minutes at room temperature using an Allegra benchtop centrifuge (Beckman Coulter, Fullerton, Calif.). Supernatant (100 μL) was transferred to a shallow 96-well plate (Costar) using a liquid sample handling system (Apricot, Perkin-Elmer, Boston, Mass.). The addition of 100 μL of water was added to each sample of supernatant for a final volume of 200 μL. The plates were sealed and the contents of each well were analyzed by LC-MS/MS.
Analytical quantitation: The LC-MS/MS system was comprised of an HTS-PAL autosampler (Leap Technologies, Carrboro, N.C.), an HP1200 HPLC (Agilent, Palo Alto, Calif.), and an API4000 triple quadrupole mass spectrometer (PE Sciex, a division of Applied Biosystems, Foster City, Calif.). […] The total run time, including re-equilibration, for a single injection was 2 minutes. Mass spectrometric detection of the analytes was accomplished using the ESI ionization mode. Ion current was optimized during infusion of a stock solution of propantheline, esmolol, or the representative test compound. Analyte responses, including the IS were measured by multiple reaction monitoring (MRM) of transitions unique to each compound.
Calculations: Data were acquired and peak areas were calculated for test compounds and the internal standard using Analyst 1.6.2 software (Sciex). The mean peak area ratios were calculated by averaging the peak area ratios (n=3) of each test compound and the IS for each sample.
Peak area tables were exported to BioAssay Enterprise (CambridgeSoft, Cambridge, Mass.), where the average analyte-to-internal standard peak area ratios were used to calculate percent remaining (% REM) and half-life (t1/2). Percent remaining (f) was calculated by determining the ratio of the peak area ratio at each time point to the peak area ratio of the time-zero samples. […]

Data set [2] addresses KRas G12C (Homo sapiens, UniProt P01116, C118S/C51S/C80L/G12C). As to the kind of experiment: KRas G12C Modification Assay (LCMS detection of covalent adduct). It counts as binding. Summed up: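 Intact protein analysed by LC/MS with deconvolution; unmodified protein signal normalized to no-compound control and reported as percent of control (POC).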
In data set [3] the target is KRas G12C (Homo sapiens, UniProt P01116, G12C). The data set can be described thus: Cellular inhibition of KRas G12C measured by Phospho-ERK in NCI-H358 cells. In kind it is cell-based. To be noted: pERK(Thr202/Tyr204) normalized with GAPDH, NCI-H358 cells, 3 hours. Summed up:
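Ratio of phospho-ERK(Thr202/Tyr204) to GAPDH, read by near-infrared secondary antibodies on fixed, permeabilised NCI-H358 cells, expressed relative to DMSO control. Compound exposure was 3 h at 0.5% DMSO. IC50 values come from 4-parameter curve fits.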

Setting [4] is: pH 7.4, human whole blood diluted to 50% with PBS, 5 μM, 240-minute incubation, read-out: Compound Half-life.
Where [5] appears, read: normalized percent of control, 5 μM concentration for 3 hours.

Read-outs that look alike come from different tables or passages of the source.

A word on the half-life: it is the time needed for the level to fall by half in the phase considered. Usually IC50 stands for the concentration at which inhibition is half-maximal.

For the compound `Cc1cccc2cccc(N3CCc4c(nc(OC[C@@H]5CCCN5C)nc4N4CCN(C(=O)/C=C/CN5CC(F)C5)[C@@H](CC#N)C4)C3)c12` [Example 515, 2-[(2S)-1-[(E)-4-(3-fluoroazetidin-1-yl)but-2-enoyl]-4-[7-(8-methyl-1-naphthyl)-2-[[(2S)-1-methylpyrrolidin-2-yl]methoxy]-6,8-dihydro-5H-pyrido[3,4-d]pyrimidin-4-yl]piperazin-2-yl]acetonitrile], in data set [1] (setting [4]), the half-life at 5 µM is greater than 33.3 h.
Regarding `CC(C)[N+](C)(CCOC(=O)C1c2ccccc2Oc2ccccc21)C(C)C` [Propantheline, reference compound], the half-life at 5 µM in data set [1] (setting [4]) is no more than 3.33 h; in data set [1] (pH 7.4, human whole blood, positive control, read-out: half life) it was 1.63 h.
With `C=C(F)C(=O)N1CCN(c2nc(OC[C@@H]3CCCN3C)nc3c2CCN(c2cccc4cccc(Cl)c24)C3)C[C@@H]1CC#N` [Example 478, 2-[(2S)-4-[7-(8-chloro-1-naphthyl)-2-[[(2S)-1-methylpyrrolidin-2-yl]methoxy]-6,8-dihydro-5H-pyrido[3,4-d]pyrimidin-4-yl]-1-(2-fluoroprop-2-enoyl)piperazin-2-yl]acetonitrile], the half-life at 5 µM in data set [1] (setting [4]) is greater than 33.3 h.
Same read-out and setting: as for `C=CC(=O)N1CCN(c2nc(OC[C@@H]3CCCN3C)nc3c2CCN(c2cccc4cccc(Cl)c24)C3)C[C@@H]1CC#N` [Example 331, 2-[(2S)-4-[7-(8-chloro-1-naphthyl)-2-[[(2S)-1-methylpyrrolidin-2-yl]methoxy]-6,8-dihydro-5H-pyrido[3,4-d]pyrimidin-4-yl]-1-prop-2-enoyl-piperazin-2-yl]acetonitrile], the figure is 3.33 to 16.7 h.
For `C=CC(=O)N1CCN(c2nc(OCCCN3CCOCC3)nc3c2CCN(c2c(C)c(O)cc4ccccc24)C3)CC1` [Example 173, 1-(4-(7-(3-hydroxy-2-methylnaphthalen-1-yl)-2-(3-morpholinopropoxy)-5,6,7,8-tetrahydropyrido[3,4-d]pyrimidin-4-yl)piperazin-1-yl)prop-2-en-1-one], at KRas G12C [2] (setting [5]), the POC result was “C (“C”>50% POC)”. On KRas G12C [3] (read-out: IC50), the IC50 is greater than 1000 nM.
For `C=C(F)C(=O)N1CCN(c2nc(OC[C@@H]3CCCN3C)nc3c2CCN(c2c(C(F)(F)F)c(C)cc4[nH]ncc24)C3)C[C@@H]1CC#N` [Example 555, 2-((S)-1-(2-Fluoroacryloyl)-4-(7-(6-methyl-5-(trifluoromethyl)-1H-indazol-4-yl)-2-(((S)-1-methylpyrrolidin-2-yl)methoxy)-5,6,7,8-tetrahydropyrido [3,4-d]pyrimidin-4-yl)piperazin-2-yl)acetonitrile] the same measures were “C (“C”>50% POC)” and 0.1 to 1000 nM.
Taken in the same sequence, the figures for `C=CC(=O)N1CCN(c2nc(OC[C@@H]3CCCN3C)nc3c2CCN(c2c(C)c(C)cc4[nH]ccc24)C3)C[C@@H]1CC#N` [Example 466, 2-((S)-1-acryloyl-4-(7-(5,6-dimethyl-1H-indol-4-yl)-2-(((S)-1-methylpyrrolidin-2-yl)methoxy)-5,6,7,8-tetrahydropyrido[3,4-d]pyrimidin-4-yl)piperazin-2-yl)acetonitrile] were “C (“C”>50% POC)” and 0.1 to 1000 nM.
For `C=CC(=O)N1CCN(c2nc(OCCCN3CCOCC3)nc3c2CCN(c2c(F)c(O)cc4ccccc24)C3)CC1` [Example 165, 1-[4-[7-(2-fluoro-3-hydroxy-1-naphthyl)-2-(3-morpholinopropoxy)-6,8-dihydro-5H-pyrido[3,4-d]pyrimidin-4-yl]piperazin-1-yl]prop-2-en-1-one], the POC entry at KRas G12C [2] (5 µM) is reported as “C (key: “A”≤25% POC; “B”>25% POC-≤50% POC; “C”>50% POC)”. The IC50 on KRas G12C [3] (read-out: IC50) is greater than 1000 nM.
Regarding `C=CC(=O)N1CCN(c2nc(OC[C@]3(C)CCCN3C)nc3c2CCN(c2cccc4ccccc24)C3)CC1CC#N` (stereo partly drawn) [Example 251, 2-(1-acryloyl-4-(2-(((S)-1,2-dimethylpyrrolidin-2-yl)methoxy)-7-(naphthalen-1-yl)-5,6,7,8-tetrahydropyrido[3,4-d]pyrimidin-4-yl)piperazin-2-yl)acetonitrile], the POC result at KRas G12C [2] (setting [5]) is recorded as “C (“C”>50% POC)”. On KRas G12C [3], this compound displayed an IC50 of 0.1 to 1000 nM.
Consider `Cc1cccc2cccc(N3CCc4c(nc(OCCCN5C[C@@H]6C[C@H]5CO6)nc4N4CCN(C(=O)/C=C/CF)[C@@H](CC#N)C4)C3)c12` [Example 565, 2-[(2S)-1-[(E)-4-Fluorobut-2-enoyl]-4-[7-(8-methyl-1-naphthyl)-2-[3-[(1S,4S)-2-oxa-5-azabicyclo[2.2.1]heptan-5-yl]propoxy]-6,8-dihydro-5H-pyrido[3,4-d]pyrimidin-4-yl]piperazin-2-yl]acetonitrile], for which, on KRas G12C [2] (setting [5]), the POC entry is “C (“C”>50% POC)”. On KRas G12C [3] (read-out: IC50), the concentration for half-maximal inhibition (IC50) is 0.1 to 1000 nM.
For `C=CC(=O)N1CCN(c2nc(OCCCN3CCOCC3)nc3c2CCN(c2cc(O)cc4cc(C)[nH]c24)C3)CC1` [Example 167, 1-(4-(7-(5-hydroxy-2-methyl-1H-indol-7-yl)-2-(3-morpholinopropoxy)-5,6,7,8-tetrahydropyrido[3,4-d]pyrimidin-4-yl)piperazin-1-yl)prop-2-en-1-one] the same measures were “B (“B”>25% POC-≤50% POC)” and greater than 1000 nM.
Regarding `[2H]C([2H])=C([2H])C(=O)N1CCN(c2nc(OC[C@@H]3CCCN3C)nc3c2CCN(c2cccc4ccccc24)C3)C[C@@H]1CC#N` [Example 475, 2-[(2S)-4-[2-[[(2S)-1-methylpyrrolidin-2-yl]methoxy]-7-(1-naphthyl)-6,8-dihydro-5H-pyrido[3,4-d]pyrimidin-4-yl]-1-(2,3,3-trideuterioprop-2-enoyl)piperazin-2-yl]acetonitrile], the POC entry on KRas G12C [2] (setting [5]) is recorded as “C (“C”>50% POC)”. In addition, the IC50 at KRas G12C [3] (read-out: IC50) lay within 0.1 to 1000 nM.
With `C=C(F)C(=O)N1CCN(c2nc(OC[C@@H]3CC(F)(F)CN3C)nc3c2CCN(c2cccc4cccc(Cl)c24)C3)C[C@@H]1CC#N` [Example 543], the POC result on KRas G12C [2] (setting [5]) is on record as “C (“C”>50% POC)”. Further, at KRas G12C [3] (read-out: IC50), the IC50 is 0.1 to 1000 nM.
Taken in the same sequence, the figures for `Cc1cccc2cccc(N3CCc4c(nc(OC[C@H]5CCCN5C)nc4N4CCN(C(=O)/C=C/CF)[C@@H](CC#N)C4)C3)c12` [Example 563, 2-[(2S)-1-[(E)-4-Fluorobut-2-enoyl]-4-[7-(8-methyl-1-naphthyl)-2-[[(2R)-1-methylpyrrolidin-2-yl]methoxy]-6,8-dihydro-5H-pyrido[3,4-d]pyrimidin-4-yl]piperazin-2-yl]acetonitrile] were “C (“C”>50% POC)” and 0.1 to 1000 nM.
Taken in the same sequence, the figures for `C=C(F)C(=O)N1CCN(c2nc(OC[C@@H]3C[C@@H](F)CN3C)nc3c2CCN(c2cccc4cccc(Cl)c24)C3)C[C@@H]1CC#N` [Example 574, 2-[(2S)-4-[7-(8-Chloro-1-naphthyl)-2-[[(2S,4R)-4-fluoro-1-methyl-pyrrolidin-2-yl]methoxy]-6,8-dihydro-5H-pyrido[3,4-d]pyrimidin-4-yl]-1-(2-fluoroprop-2-enoyl)piperazin-2-yl] acetonitrile] were “C (“C”>50% POC)” and 0.1 to 1000 nM.
